Test [1] addresses recombinant human CSE (Homo sapiens, UniProt P32929). Kind of test: CSE activity (AzMC probe assay), H2S production by recombinant human CSE. To be noted: for CSE production of H2S (AzMC fluorescence, kinetic 2 h): 50 uM, 2 μg rCSE, 10 mM L-cysteine, 5 uM PLP, Tris-HCl pH 8, vs vehicle. Format: biochemical. The procedure:
The activity of recombinant human CSE (rCSE) was tested in the presence of C5, compound 8 (50 uM), Z20 compound 13 (50 uM) or vehicle (DMSO). Briefly, compounds were added in reaction buffer (50 mM Tris-HCl, pH 8) containing 2 μg of rCSE, 10 mM CSE substrate L-cysteine, 5 uM pyridoxal 5′-phosphate (PLP). After addition of 10 μM of the H2S sensitive fluorescent probe 7-azido-4-methylcoumarin (AzMC) in a total volume of 100 μl, fluorescence was immediately measured in kinetic mode for 2 h at 37° C. with SpectraMax M5 reader, with excitation and emission wavelengths of 365 nm and 450 nm, respectively. Statistical analysis was determined using simple linear regression with p<0.0001 for C5 vs. vehicle and p<0.0002 for Z20 vs. vehicle.
Recombinant human CSE (1 μg/well) was incubated with various concentrations of compounds (all in final 0.1% DMSO), or with 0.1% DMSO as a control, in 10 mM sodium phosphate buffer pH 8.2. Next, 10 mM L-cysteine and 1 mM PLP and 10 μM of the probe AzMC were then added to reach 100 μL total volume. Fluorescence was measured for 3 h at 37° C. with excitation and emission wavelengths of 365 nm and 450 nm, respectively, in a 96-well half area black plate with transparent bottom.
Dose-response curve of each compound was performed, using triplicate wells for each tested doses. The background (10 mM sodium phosphate buffer with L-cysteine, PLP and AzMC) was subtracted from all values. Each mean value was converted to percent activity (0% defined as the smallest mean in each data set, 100% defined as the highest mean in each data set). The data were normalized using the four parameter logistic model (4PL) equation to calculate EC50 using GraphPad Prism.

Test [2] deals with MOVAS cells. Put plainly: MOVAS cell calcification assay (Alizarin red). Format: cell-based, mouse. As to conditions: for Mineralization (Alizarin red): 50 uM. The method in brief: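 MOVAS mouse vascular smooth muscle cells were calcified with CPP (equivalent to 50 μg Ca/mL) for 24 h at 37 °C in DMEM/10% FBS with compounds in 0.1% DMSO. Deposits were stained with Alizarin Red (pH 4.2), dissolved in cetylpyridinium chloride and read at 570 and 630 nm. No-CPP background was subtracted.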

For test [3], the system named is primary human chondrocytes. Put plainly: Primary human chondrocyte calcification (Alizarin red). Format: cell-based. To be noted: secondary CPP 24 h, 50 uM. On the procedure:
(a) WT and Cse-deficient chondrocytes were incubated with a CSE activator (SU004, 50 μM) previously identified by high-through put screen, or with the equivalent volume of DMSO (0.1%) for 24 hours in calcification medium. STS 25 mM was used as a positive control for calcification inhibition. Calcium-containing crystals were stained with Alizarin red and quantified. (b) Cytotoxicity was assessed by LDH measurement and expressed as % over 100% cytotoxicity. (c) IL-6 secretion was measured by ELISA in supernatant of WT chondrocytes incubated with SU004 50 μM or STS 25 mM for 24 hours in calcification medium. (d) Primary human chondrocytes from 3 OA patients (P1, P2, P3) were incubated with SU004 50 μM, or with the equivalent volume of DMSO (0.1%) for 24 hours in calcification medium. Calcium-containing crystals were stained with Alizarin red and quantified. (e) Cytotoxicity was assessed by LDH measurement and expressed as % over 100% cytotoxicity. (f) IL-6 secretion was measured by ELISA in supernatant of human chondrocytes incubated for 24 hours with SU004 50 μM in calcification medium. *p<0.05, ** p<0.01, ****p<0.0001.
1. Alizarin red staining of primary human chondrocytes stimulated with secondary CPP for 24 h in DMEM+10% FBS and treated or not with 50 uM of compounds.
Chondrocytes were isolated from cartilage pieces incubated overnight in the digestion enzyme Liberase™ (Roche). […]

Sequence of recombinant human CSE (P32929 whole entry): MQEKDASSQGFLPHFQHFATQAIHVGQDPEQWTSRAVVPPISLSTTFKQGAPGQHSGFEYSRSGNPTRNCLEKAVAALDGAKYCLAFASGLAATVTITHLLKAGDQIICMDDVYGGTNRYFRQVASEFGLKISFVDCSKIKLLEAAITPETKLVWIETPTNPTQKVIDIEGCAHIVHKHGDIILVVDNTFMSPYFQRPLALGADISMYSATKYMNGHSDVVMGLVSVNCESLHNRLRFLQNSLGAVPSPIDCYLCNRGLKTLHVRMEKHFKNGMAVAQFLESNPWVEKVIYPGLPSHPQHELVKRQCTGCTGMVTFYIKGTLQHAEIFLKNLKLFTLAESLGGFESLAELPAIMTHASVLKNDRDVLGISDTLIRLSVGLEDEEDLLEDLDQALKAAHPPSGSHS

Take `CCn1cnc2c(Nc3cnn(CC4CCCO4)c3)ncnc21` (stereo not drawn) [Compound 13]: the “CSE production of H2S (AzMC fluorescence, kinetic 2 h)” value in test [1] is “augments CSE production of H2S”. Besides, the “Mineralization (Alizarin red)” value in test [2] (sCPP 24 h) was “inhibits MOVAS cells mineralization”; in test [3], “inhibit primary human chondrocyte mineralization”. The “Mineralization (Alizarin red absorbance 570-630 nm)” value in test [2] (sCPP 24 h, different concentrations) was “Dose-dependent effect”.

One may read the EC50 as the concentration that produces a half-maximal response. As a reminder, the inhibition is the share of the control response that was lost under treatment. Consider `Cn1ncc2c(Nc3cnn(CC4CCCO4)c3)ncnc21` (stereo not drawn) [Compound 8, N-{1-methyl-1H-pyrazolo[3,4-d]pyrimidin-4-yl}-1-[(oxolan-2-yl)methyl]-1H-pyrazol-4-amine], for which the “CSE production of H2S (AzMC fluorescence, kinetic 2 h)” value in test [1] is reported as “augments CSE production of H2S”. The EC50 in test [1] (EC50 calculated by the four-parameter logistic model) was 68.6 nM. The inhibition at 2 µM in test [2] (Mus musculus, MOVAS, at 2 uM, read-out: Calcification assay Max calcification inhibition (%) at the indicated dose of compound) worked out at 38%. The “Mineralization (Alizarin red)” value in test [2] (sCPP 24 h) is on record as “inhibit murine vascular smooth muscle cells (MOVAS cells) mineralization”; in test [3], “inhibit primary human chondrocyte mineralization”.

(Values after patent US20240182475A1 (Université de Lausanne, priority 2021, published 2024).)
